ChEMBL document CHEMBL1151026, “Synthesis and pharmacological evaluation of the enantiomers of the dopamine autoreceptor agonist PD 135385” (Bioorg Med Chem Lett, 1993)

Tests used:
D(2) dopamine receptor [1] = target: T1, D(2) dopamine receptor (Rattus norvegicus, UniProt P61169); experiment: Displacement of [3H]spiperone from rat striatal Dopamine receptor D2
Mus musculus [2] = experiment: Tested for locomotor activity (LMA) in mouse by intraperitoneal administration; assay type: functional; conditions: ip
Rattus norvegicus [3] = experiment: Tested for locomotor activity (LMA) in rat by peroral administration; assay type: functional; conditions: po
Rattus norvegicus [4] = experiment: Percent reversal of the increase inDOPA levels in the striatum of GBL-treated rats at 10 mg/kg administered intraperitoneally; assay type: functional; conditions: route intraperitoneal; for Reversal % at 10 mg/kg: ip
Mus musculus [5] = experiment: Tested for locomotor activity (LMA) in mouse by intraperitoneal administration for the dose >30 mg/kg; assay type: functional; conditions: ip
Rattus norvegicus [6] = experiment: Tested for locomotor activity (LMA) in rat by peroral administration for the dose for the dose of >10 mg/kg; assay type: functional; conditions: po
D(2) dopamine receptor [7] = target: T1, D(2) dopamine receptor; experiment: In vitro agonist binding affinity was determined by displacing the [3H]N-propylnorapomorphine ([3H]NPA) in rat striatal Dopamine receptor D2
D(1A) dopamine receptor = D(1A) dopamine receptor (Rattus norvegicus, UniProt P18901); experiment: In vitro antagonist binding affinity was determined by displacing the [3H]-SCH- in rat striatal Dopamine receptor D1
Rattus norvegicus [8] = experiment: Tested for % rats with stereotypy at the dose of 116 mg/Kg administered perorally; assay type: functional
Rattus norvegicus [9] = experiment: Tested for inhibition of Dopamine neuronal firing in rat at the dose of 2.5 mg/Kg by intraperitoneal administration; assay type: functional; conditions: ip
Rattus norvegicus [10] = experiment: Tested for locomotor activity in rat by peroral administration; assay type: functional; conditions: po
Rattus norvegicus [11] = experiment: Tested for % rats with stereotypy at the dose of 61 mg/Kg administered perorally; assay type: functional
Rattus norvegicus [12] = experiment: Tested for locomotor activity in Rat by peroral administration; assay type: functional; conditions: po
Rattus norvegicus [13] = experiment: Tested for inhibition of dopamine neuronal firing in rat at the dose of 2.5 mg/Kg by intraperitoneal administration; assay type: functional; conditions: ip
Rattus norvegicus [14] = experiment: Tested for % rats with stereotypy at the dose of 67 mg/Kg administered perorally; assay type: functional
Rattus norvegicus [15] = experiment: Tested for % rats with stereotypy at the dose of 20 mg/Kg administered perorally; assay type: functional
Rattus norvegicus [16] = experiment: Percent reversal of the increase inDOPA levels in the striatum of GBL-treated rats when administered intraperitoneally was determined; assay type: functional; conditions: ip
Rattus norvegicus [17] = experiment: Tested for % rats with stereotypy at the dose of 0.3 mg/Kg subcutaneous administration; assay type: functional
Rattus norvegicus [18] = experiment: Tested for locomotor activity in rat by subcutaneous administration; conditions: sc
Rattus norvegicus [19] = experiment: Tested for inhibition of dopamine neuronal firing in rat at the dose of 0.25 mg/Kg by intraperitoneal administration; assay type: functional; conditions: ip

T1 sequence (P61169 whole entry): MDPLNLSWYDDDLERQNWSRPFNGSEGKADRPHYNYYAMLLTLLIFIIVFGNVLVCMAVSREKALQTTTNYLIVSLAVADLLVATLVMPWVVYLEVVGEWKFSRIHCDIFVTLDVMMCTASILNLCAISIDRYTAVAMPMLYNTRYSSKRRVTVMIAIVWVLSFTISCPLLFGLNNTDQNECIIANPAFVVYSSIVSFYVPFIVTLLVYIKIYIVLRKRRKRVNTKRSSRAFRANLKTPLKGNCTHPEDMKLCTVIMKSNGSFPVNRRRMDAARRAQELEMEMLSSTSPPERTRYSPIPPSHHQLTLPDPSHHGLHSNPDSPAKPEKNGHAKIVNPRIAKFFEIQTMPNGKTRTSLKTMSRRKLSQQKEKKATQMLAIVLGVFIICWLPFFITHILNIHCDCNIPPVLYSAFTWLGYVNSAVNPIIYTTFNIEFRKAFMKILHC
Chain of D(1A) dopamine receptor (P18901 whole entry): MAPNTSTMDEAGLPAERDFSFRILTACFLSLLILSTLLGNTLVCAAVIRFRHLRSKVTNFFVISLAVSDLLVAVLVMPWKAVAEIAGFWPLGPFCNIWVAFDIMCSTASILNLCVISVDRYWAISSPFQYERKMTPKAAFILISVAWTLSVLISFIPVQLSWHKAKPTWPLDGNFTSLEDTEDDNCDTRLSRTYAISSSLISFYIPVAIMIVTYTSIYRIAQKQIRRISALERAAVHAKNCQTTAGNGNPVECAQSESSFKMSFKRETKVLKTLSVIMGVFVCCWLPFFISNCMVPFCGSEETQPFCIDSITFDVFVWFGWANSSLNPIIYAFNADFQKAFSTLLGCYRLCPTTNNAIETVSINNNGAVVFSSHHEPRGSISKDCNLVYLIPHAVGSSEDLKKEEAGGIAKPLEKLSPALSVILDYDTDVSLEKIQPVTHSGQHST

| Structure (SMILES) | IC50 (D(2) dopamine receptor [1]) [µM] | ED50 (Mus musculus [2]) [mg/kg] | ED50 (Rattus norvegicus [3]) [mg/kg] | Reversal (Rattus norvegicus [4]) [%] | IC50 (D(2) dopamine receptor [7]) [µM] | IC50 (D(1A) dopamine receptor) [µM] | ED50 (Rattus norvegicus [10]) [mg/kg] | also measured |
| --- | --- | --- | --- | --- | --- | --- | --- | --- |
| C1=C(c2ccccc2)CCC(N2CCN(c3ccccn3)CC2)C1 (stereo not drawn) | 0.6 | 1 | > 30 | – | – | – | – | – |
| C1=C(c2ccccc2)CCC(CCN2CCN(c3ccccn3)CC2)C1 (stereo not drawn) | – | 2.1 | 6.7 | 50 | – | – | – | – |
| C1=C(c2ccccc2)CC[C@@H](CCN2CCN(c3ccccn3)CC2)C1 | 0.545 | – | – | – | 0.064 | > 6 | 9.1 | Activity (Rattus norvegicus [8]): 60%; Reversal % at 10 mg/kg (Rattus norvegicus [4]): 57%; inhibition in vivo at 2.5 mg/kg (Rattus norvegicus [9]): 58% |
| C1=C(c2ccccc2)CCC(CN2CCN(c3ccccn3)CC2)C1 (stereo not drawn) | ~10 | ~30 | – | – | – | – | – | – |
| C1=C(c2ccccc2)CC[C@H](CCN2CCN(c3ccccn3)CC2)C1 | 0.704 | – | – | – | 0.082 | > 6 | – | Activity (Rattus norvegicus [11]): 0%; Reversal % at 10 mg/kg (Rattus norvegicus [4]): 49%; ED50 (Rattus norvegicus [12]): 6.1 mg/kg; inhibition in vivo at 2.5 mg/kg (Rattus norvegicus [13]): 38% |
| C1=C(c2ccccn2)CCC(N2CCN(c3ccccn3)CC2)C1 (stereo not drawn) | 1.18 | 0.9 | 5.8 | 75 | – | – | – | – |
| C1=C(c2ccccc2)CCC(CCN2CCN(c3ccccn3)CC2)C1 (racemic) | 0.412 | – | – | – | 0.088 | > 6 | 6.7 | Activity (Rattus norvegicus [14]): 0%; Reversal % at 10 mg/kg (Rattus norvegicus [4]): 50%; inhibition in vivo at 2.5 mg/kg (Rattus norvegicus [13]): 41% |
| CN1CCC=C2c3nc(N)sc3CCC21 (racemic) | 2.92 | – | – | – | 0.202 | > 10 | 0.8 | Activity (Rattus norvegicus [15]): 0%; ED50 (Rattus norvegicus [16]): 0.7 mg/kg; inhibition in vivo at 2.5 mg/kg (Rattus norvegicus [13]): 99% |
| CN1CCc2cccc3c2[C@H]1Cc1ccc(O)c(O)c1-3 [APOMORPHINE] | – | – | – | – | – | – | > 30 | Activity (Rattus norvegicus [17]): 100%; ED50 (Rattus norvegicus [16]): 0.3 mg/kg; ED50 (Rattus norvegicus [18]): 0.03 mg/kg; inhibition in vivo at 0.25 mg/kg (Rattus norvegicus [19]): 100% |

More lines, main results first:

| IC50 (D(2) dopamine receptor [1]) [µM] | Structure (SMILES) | ED50 (Mus musculus [2]) [mg/kg] | ED50 (Rattus norvegicus [3]) [mg/kg] | Reversal (Rattus norvegicus [4]) [%] | IC50 (D(2) dopamine receptor [7]) [µM] | IC50 (D(1A) dopamine receptor) [µM] | ED50 (Rattus norvegicus [10]) [mg/kg] | also measured |
| --- | --- | --- | --- | --- | --- | --- | --- | --- |
| 0.352 | C1=C(c2cccs2)CCC(N2CCN(c3ccccn3)CC2)C1 (stereo not drawn) | 9.3 | > 30 | – | – | – | – | – |
| 0.128 | C1=C(c2ccccn2)CCC(CCN2CCN(c3ccccn3)CC2)C1 (stereo not drawn) | – | – | 89 | – | – | – | ED50 (Mus musculus [5]): 0.4 mg/kg; ED50 (Rattus norvegicus [6]): ~3 mg/kg |
| 0.436 | C1=C(c2cccs2)CCC(CCN2CCN(c3ccccn3)CC2)C1 (stereo not drawn) | 8.4 | 13 | 46 | – | – | – | – |
| 2.43 | C1=C(c2cccs2)CCC(CN2CCN(c3ccccn3)CC2)C1 (stereo not drawn) | > 30 | – | – | – | – | – | – |
